Measured values reported in US4103011A, “Novel penicillin compounds and process for preparation thereof” (priority 1976, dated 1978).
Structures can show the parent of a compound that is named as a salt. Where two headings read alike, the source gives them in different places.

Legend:
[1] = tested on: Staphylococcus aureus No. 50774; experiment: In vivo efficacy against systemic infection; parameters: species or system male mice (ddY); details: NO.50774, in Mus musculus, 336 h, sc, twice, about 5 minutes and 6 hours after infection, read-out: ED50 (median effective dose)
Outline: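 Male ddY mice (~20 g) infected intravenously with 50 to 100 LD50 (about 5 × 10^8 cells/mouse) of S. aureus No. 50774 in saline. Compounds in water or aqueous sodium carbonate (pH 8-9) dosed twice, about 5 minutes and 6 hours post-infection; ED50 (mg/kg) by Behrens-Kaerber method.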

[2] = tested on: bacteria (systemic infection); experiment: In vivo efficacy against systemic infection, overall conclusions; parameters: species or system male mice (ddY); details: Table II
Description: The contents in the vials (No. A and No. C) prepared in Example 17 were each dissolved in deionized water, and injections having various concentrations were prepared.
Compounds A, B, F, G, H and M were dissolved in deionized water. Compounds C, D, E and J were dissolved in an aqueous solution of sodium carbonate (pH 8-9) to prepare injections of various concentrations.
Each of the injections was administered to mice under the conditions described below, and the median effective doses (ED50) obtained are shown in Table II.

in vivo = details: mouse
[3] = Urinary excretion in mice; assay type: in vivo, male mice (ddY); details: for a: amount in urine: 4 mice, total body weight 101.8 g
Description: The contents of the vials (No. A) obtained in Example 17 were dissolved in deionized water to form solutions of penicillin compound 1 in a concentration of 25 mg/ml. The solutions were administered in a dose of 25 mg/kg (im) to four male mice (ddY) having an average body weight of 25 g. After given periods of time, the urine was collected from the four mice, and the concentration of the penicillin compound 1 in the urine was determined.
Urine was collected by using a metabolism cage for 3, 6, and 24 hours after administration. The pooled urine was diluted with a 0.067M phosphate buffer (pH 7.0) before assay to 500 times for the 0-3 hour urine, 100 times for the 3-6 hour urine and 10 times for the 6-24 hour urine.
The levels of compound 1 were determined by the thin-layer cup-plate method using Escherichia coli Kp as an indicator microorganism and a standard calibration line was prepared in a 0.067M phosphate buffer (pH 7.0).

[4] = tested on: Pseudomonas aeruginosa Tsuchijima; experiment: In vitro antibacterial activity (MIC); assay type: cell-based; details: Pseudomonas aeruginosa Tsuchijima; read-out: minimum inhibitory concentration (MIC)
Description: (§1) In vitro antibacterial activity against 20 strains of bacteria
(§2) The numerals in the table show minimum inhibitory concentrations (MIC)

Escherichia coli P-140a = experiment: In vitro antibacterial activity (MIC); assay type: cell-based
Description: as §1, §2

[5] = tested on: Shigella flexneri 4a P-330; experiment: In vitro antibacterial activity (MIC); assay type: cell-based; details: 4AP330, read-out: minimum inhibitory concentration (MIC)
Description: as §1, §2

[6] = tested on: Pseudomonas aeruginosa No.12; experiment: In vitro antibacterial activity (MIC); assay type: cell-based; details: Pseudomonas aeruginosa, NO.12, read-out: minimum inhibitory concentration (MIC)
Description: as §1, §2

Escherichia coli P-5101 = experiment: In vitro antibacterial activity (MIC); assay type: cell-based; details: P5101; Escherichia coli P-5101; read-out: minimum inhibitory concentration (MIC)
Description: as §1, §2

[7] = tested on: Serratia mercescens IFO 3736; experiment: In vitro antibacterial activity (MIC); assay type: cell-based; details: IFO3736; Serratia mercescens IFO 3736; read-out: minimum inhibitory concentration (MIC)
Description: as §1, §2

[8] = tested on: Salmonella enteritidis No. 1891; experiment: In vitro antibacterial activity (MIC); assay type: cell-based; details: Salmonella enterica; Salmonella enteritidis No. 1891; read-out: minimum inhibitory concentration (MIC)
Description: as §1, §2

Proteus morganii Kono = experiment: In vitro antibacterial activity (MIC); assay type: cell-based; details: Morganella morganii, read-out: minimum inhibitory concentration (MIC)
Description: as §1, §2

Proteus rettgeri P-2503 = experiment: In vitro antibacterial activity (MIC); assay type: cell-based; details: Providencia rettgeri, P2503; Proteus rettgeri P-2503; read-out: minimum inhibitory concentration (MIC)
Description: as §1, §2

[9] = tested on: Salmonella typhimurium S-9; experiment: In vitro antibacterial activity (MIC); assay type: cell-based; details: Salmonella enterica; Salmonella typhimurium S-9; read-out: minimum inhibitory concentration (MIC)
Description: as §1, §2

[10] = tested on: Streptococcus pyogenes 65A; experiment: In vitro antibacterial activity (MIC); assay type: cell-based; details: Streptococcus pyogenes 65A; read-out: minimum inhibitory concentration (MIC)
Description: as §1, §2

[11] = tested on: Pseudomonas aeruginosa No. 12; experiment: In vivo efficacy against systemic infection; parameters: species or system male mice (ddY); details: for ED50: NO.12, in Mus musculus
Outline: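 Male ddY mice (about 20 g) infected intraperitoneally with a Pseudomonas aeruginosa No. 12 suspension. Compounds in deionized water were given twice, about 5 minutes and 6 hours after infection. Effective dose calculated by the Behrens-Kaerber method.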

Plasma level in mice = assay type: in vivo, male mice (ddY)
Description: The contents of the vials (No. A) obtained in Example 17 were dissolved in deionized water to form solutions of compound 1 in a concentration of 100 mg/ml. The solutions were intramuscularly (im) administered to twenty four male mice (ddY) having an average body weight of 26 g at a dose of 25 mg/kg.
Blood was taken by cardiac puncture from four mice ech 0.25, 0.5, 1, 2, 3 and 4 hours after administration, and centrifuged individually to separate the plasma.
Drug levels were determined by the thin-layer cup-plate method using Escherichia coli Kp as an indicator organism. Plasma was appropriately (to more than 10 times) diluted with a 0.067 M phosphate buffer having a pH of 7.0. A standard calibration line was prepared in the same buffer.

[12] = after parenteral administration

CC1(C)S[C@@H]2[C@H](NC(=O)[C@H](NC(=O)c3c[nH]c4nc(N5CCN(C=O)CC5)ncc4c3=O)c3ccc(O)cc3)C(=O)N2[C@H]1C(=O)O [Compound 1, D-α-[5,8-Dihydro-2-(4-formyl-1-piperazinyl)-5-oxopyrido[2,3-d]pyrimidine-6-carboxamido]-p-hydroxybenzyl-penicillin sodium salt]
ED50 [1]: 2.1 mg/kg
antibacterial activity in vivo (in words) [2]: excellent antibacterial activity in vivo
LD50 at 168 h (in vivo; iv): 4520 mg/kg
selectivity ratio (in vivo; iv): 1100
LD50 at 168 h (in vivo; sc): > 6000 mg/kg
selectivity ratio (in vivo; sc): > 3000
a: amount in urine ([3]; 25 mg/kg, im, single dose, 0-3 hour): 0.718 mg
a: amount in urine ([3]; 25 mg/kg, im, single dose, 3-6 hour): 0.0480 mg
a: amount in urine ([3]; 25 mg/kg, im, single dose, 6-24 hour): 0.0483 mg
urinary level (in words) [3, 12]: higher than its MIC (μg/ml) values against various bacteria shown in Table I
dose excreted at 3 h ([3]; mouse, urine, im, 25 mg/kg, im, single dose, 0-3 hour, read-out: cr: cumulative urinary recovery): 28.2%
dose excreted at 3 h ([3]; mouse, urine, im, 25 mg/kg, im, single dose, 0-3 hour, read-out: r: urinary recovery): 28.2%
dose excreted at 6 h ([3]; mouse, urine, im, 25 mg/kg, im, single dose, 3-6 hour, read-out: r: urinary recovery): 1.89%
dose excreted at 24 h ([3]; mouse, urine, im, 25 mg/kg, im, single dose, 6-24 hour, read-out: r: urinary recovery): 1.9%
dose excreted at 6 h ([3]; mouse, urine, im, 25 mg/kg, im, single dose, column 3-6 hour, read-out: cr: cumulative urinary recovery): 30%
dose excreted at 24 h ([3]; mouse, urine, im, 25 mg/kg, im, single dose, column 6-24 hour, read-out: cr: cumulative urinary recovery): 31.9%
concentration at 3 h ([3]; mouse, urine, 25 mg/kg, im, single dose, 0-3 hour, read-out: c: urinary concentration): 187000 ng/mL
concentration at 6 h ([3]; mouse, urine, 25 mg/kg, im, single dose, 3-6 hour, read-out: c: urinary concentration): 21500 ng/mL
concentration at 24 h ([3]; mouse, urine, 25 mg/kg, im, single dose, 6-24 hour, read-out: c: urinary concentration): 7250 ng/mL
MIC [4]: 0.78 µg/mL
minimum inhibitory concentration (MIC) (Escherichia coli P-140a): 12.5 µg/mL
MIC [5]: 3.13 µg/mL
MIC [6]: 3.13 µg/mL
MIC (Escherichia coli P-5101): 1.56 µg/mL
MIC [7]: 6.25 µg/mL
MIC [8]: 0.78 µg/mL
MIC (Proteus morganii Kono): 6.25 µg/mL
MIC (Proteus rettgeri P-2503): 25 µg/mL
MIC [9]: 0.78 µg/mL
MIC [10]: 0.006 µg/mL
ED50 ([11]; iv, twice, about 5 minutes and 6 hours after infection, read-out: ED50 (median effective dose)): 4.1 mg/kg
ED50 ([11]; parenteral administration, compounds 1 and 2 together, read-out: ED50): 2 to 6 mg/kg
ED50 ([11]; sc, twice, about 5 minutes and 6 hours after infection, read-out: ED50 (median effective dose)): 2.1 mg/kg
antibacterial activity compared with compounds J and H (in words) ([11]; parenteral administration): far superior antibacterial activity
antibacterial activity relative to compounds B and C (times as high) ([11]; parenteral administration): 3 to 25 times
antibacterial activity relative to compounds D and E (times as high) ([11]; parenteral administration): 6 to 20 times
plasma level (in words) (Plasma level in mice; [12]): much the same concentration as the MIC
concentration at 0.25 h (Plasma level in mice; mouse, plasma, 25 mg/kg, im, single dose, 0.25 hour, read-out: Average plasma conc.): 27400 ng/mL
concentration at 0.5 h (Plasma level in mice; mouse, plasma, 25 mg/kg, im, single dose, 0.5 hour, read-out: Average plasma conc.): 21500 ng/mL
concentration at 1 h (Plasma level in mice; mouse, plasma, 25 mg/kg, im, single dose, 1 hour, read-out: Average plasma conc.): 15600 ng/mL
concentration at 2 h (Plasma level in mice; mouse, plasma, 25 mg/kg, im, single dose, 2 hour, read-out: Average plasma conc.): 9570 ng/mL
concentration at 3 h (Plasma level in mice; mouse, plasma, 25 mg/kg, im, single dose, 3 hour, read-out: Average plasma conc.): 4010 ng/mL
concentration at 4 h (Plasma level in mice; mouse, plasma, 25 mg/kg, im, single dose, 4 hour, read-out: Average plasma conc.): 2740 ng/mL
chemotherapeutic index relative to compounds B, D, E, F, G and J (times as high) (mice; Pseudomonas aeruginosa): 3 to 100 times
LD50 relative to compounds A to G (times as high) (mice; mice): 2 to 10 times
